Molecular target: T1, PDE10A enzyme (Homo sapiens, UniProt Q9Y233)
T1 construct: made in house; host or cells: E. coli BL21(DE3)
Experiment: PDE10A inhibition assay, SPA
Format: biochemical
Details: column head 2,1334003; unit inferred, nM
Description: Active PDE10A enzyme is prepared in a number of ways for use in PDE assays (Loughney, K. et al. Gene 1999, 234, 109-117; Fujishige, K. et al. Eur J Biochem. 1999, 266, 1118-1127 and Soderling, S. et al. Proc. Natl. Acad. Sci. 1999, 96, 7071-7076). PDE10A can be expressed as full-length proteins or as truncated proteins, as long as they express the catalytic domain. PDE10A can be prepared in different cell types, for example insect cells or E. coli. An example of a method to obtain catalytically active PDE10A is as follows: The catalytic domain of human PDE10A (amino acids 440-779 from the sequence with accession number NP 006652) is amplified from total human brain total RNA by standard RT-PCR and is cloned into the BamH1 and Xho1 sites of the pET28a vector (Novagen). Expression in coli is performed according to standard protocols. Briefly, the expression plasmids are transformed into the BL21(DE3) E. coli strain, and 50 mL cultures inoculated with the cells allowed to grow to an OD600 of 0.4-0.6 before protein expression is induced with 0.5 mM IPTG. Following induction, the cells are incubated overnight at room temperature, after which the cells are collected by centrifugation. Cells expressing PDE10A are resuspended in 12 mL (50 mM TRIS-HCl-pH8.0, 1 mM MgCl2 and protease inhibitors). The cells are lysed by sonication, and after all cells are lysed, TritonX100 is added according to Novagen protocols.
PDE10A and Pde3A assays can for example be performed as follows: PDE10A and Pde3A assays are performed in 60 uL samples containing a fixed amount of the relevant PDE enzyme (sufficient to convert 20-25% of the cyclic nucleotide substrate), a buffer (50 mM HEPES7.6; 10 mM MgCl2; 0.02% Tween20), 0.1 mg/ml BSA, 225 pCi of ^3H-labelled cyclic nucleotide substrate, tritium labeled cAMP to a final concentration of 5 nM and varying amounts of inhibitors. Reactions are initiated by addition of the cyclic nucleotide substrate, and reactions are allowed to proceed for one hr at room temperature before being terminated through mixing with 15 uL 8 mg/mL yttrium silicate SPA beads (Amersham). The beads are allowed to settle for one hr in the dark before the plates are counted in a Wallac 1450 Microbeta counter. The measured signal can be converted to activity relative to an uninhibited control (100%) and IC50 values can be calculated using the Xlfit extension to EXCEL.

T1 sequence (Q9Y233 716-1055): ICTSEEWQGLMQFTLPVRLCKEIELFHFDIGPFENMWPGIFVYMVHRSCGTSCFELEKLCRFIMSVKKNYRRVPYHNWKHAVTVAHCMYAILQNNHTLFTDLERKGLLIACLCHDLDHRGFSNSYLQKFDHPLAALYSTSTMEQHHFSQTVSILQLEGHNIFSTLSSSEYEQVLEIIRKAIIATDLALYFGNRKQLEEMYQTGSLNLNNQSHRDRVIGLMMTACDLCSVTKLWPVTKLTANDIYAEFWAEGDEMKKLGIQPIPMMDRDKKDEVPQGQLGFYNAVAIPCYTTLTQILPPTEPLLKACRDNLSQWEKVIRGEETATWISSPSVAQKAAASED

Structure (SMILES)	IC50
COc1cc2c(C#N)cnc(N3CCNC(c4ccc(Cl)cc4Cl)C3)c2cc1OC (stereo not shown) [Compound 15, 1-[3-(2,4-Dichloro-phenyl)-piperazin-1-yl]-6,7-dimethoxy-isoquinoline-4-carbonitrile]	520 nM
COc1cc2c(C#N)cnc(N3CCNC(c4ccc(N5CCOCC5)cc4)C3)c2cc1OC (stereo not shown) [Compound 16, 6,7-Dimethoxy-1-[3-(4-morpholin-4-yl-phenyl)-piperazin-1-yl]-isoquinoline-4-carbonitrile]	76 nM
COc1cc2c(C#N)cnc(N3CCNC(c4cc(F)c(Cl)cc4Cl)C3)c2cc1OC (stereo not shown) [Compound 17, 1-[3-(2,4-Dichloro-5-fluoro-phenyl)-piperazin-1-yl]-6,7-dimethoxy-isoquinoline-4-carbonitrile]	1000 nM
COc1ccc(C2CN(c3ncc(C#N)c4cc(OC)c(OC)cc34)CCO2)cc1 (stereo not shown) [Compound 18, 6,7-Dimethoxy-1-[2-(4-methoxy-phenyl)-morpholin-4-yl]-isoquinoline-4-carbonitrile]	97 nM
COc1cc2c(C#N)cnc(N3CCOC(c4ccc(C)cc4)C3)c2cc1OC (stereo not shown) [Compound 19, 6,7-Dimethoxy-1-(2-p-tolyl-morpholin-4-yl)-isoquinoline-4-carbonitrile]	580 nM
COc1cc2c(C#N)cnc(N3CCOC(c4ccc(Cl)cc4)C3)c2cc1OC (stereo not shown) [Compound 20, 1-[2-(4-Chloro-phenyl)-morpholin-4-yl]-6,7-dimethoxy-isoquinoline-4-carbonitrile]	800 nM
COc1cc2c(C#N)cnc(N3CCOC(c4ccccc4Cl)C3)c2cc1OC (stereo not shown) [Compound 21, 1-[2-(2-Chloro-phenyl)-morpholin-4-yl]-6,7-dimethoxy-isoquinoline-4-carbonitrile]	530 nM
COc1cc2c(C#N)cnc(N3CCOC(c4ccc(C(F)(F)F)cc4)C3)c2cc1OC (stereo not shown) [Compound 22, 6,7-Dimethoxy-1-[2-(4-trifluoromethyl-phenyl)-morpholin-4-yl]-isoquinoline-4-carbonitrile]	1600 nM
COc1cc2c(C#N)cnc(N3CCNC(c4ccc(C)cc4)C3)c2cc1OC (stereo not shown) [Compound 25, 6,7-Dimethoxy-1-(3-p-tolyl-piperazin-1-yl)-isoquinoline-4-carbonitrile]	300 nM
COc1cc2c(C#N)cnc(N3CCNC(c4cccc(Cl)c4)C3)c2cc1OC (stereo not shown) [Compound 26, 1-[3-(3-Chloro-phenyl)-piperazin-1-yl]-6,7-dimethoxy-isoquinoline-4-carbonitrile]	390 nM
COc1cc2c(C#N)cnc(N3CCNC(c4ccc(Br)cc4)C3)c2cc1OC (stereo not shown) [Compound 27, 1-[3-(4-Bromo-phenyl)-piperazin-1-yl]-6,7-dimethoxy-isoquinoline-4-carbonitrile]	510 nM
COc1ccc2cc(C3CN(c4ncc(C#N)c5cc(OC)c(OC)cc45)CCN3)ccc2c1 (stereo not shown) [Compound 28, 6,7-Dimethoxy-1-[3-(6-methoxy-naphthalen-2-yl)-piperazin-1-yl]-isoquinoline-4-carbonitrile]	330 nM
COc1cc2c(C#N)cnc(N3CCSC(c4ccccc4)C3)c2cc1OC (stereo not shown) [Compound 29, 6,7-Dimethoxy-1-(2-phenyl-thiomorpholin-4-yl)-isoquinoline-4-carbonitrile]	2500 nM
COc1cc2c(C#N)cnc(N3CCNC(c4ccc(Cl)cc4)C3)c2cc1OC (stereo not shown) [Compound 30, 1-[3-(4-Chloro-phenyl)-piperazin-1-yl]-6,7-dimethoxy-isoquinoline-4-carbonitrile]	700 nM
COc1cc2c(N3CCNC(c4ccc(C)cc4)C3)nc(C)c(C#N)c2cc1OC (stereo not shown) [Compound 31, 6,7-Dimethoxy-3-methyl-1-(3-p-tolyl-piperazin-1-yl)-isoquinoline-4-carbonitrile]	1000 nM
COc1ccc(C2CN(c3nc(C)c(C#N)c4cc(OC)c(OC)cc34)CCN2)cc1 (stereo not shown) [Compound 32, 6,7-Dimethoxy-1-[3-(4-methoxy-phenyl)-piperazin-1-yl]-3-methyl-isoquinoline-4-carbonitrile]	290 nM
COc1cc2c(N3CCNC(c4ccc5ccccc5c4)C3)nc(C)c(C#N)c2cc1OC (stereo not shown) [Compound 33, 6,7-Dimethoxy-3-methyl-1-(3-naphthalen-2-yl-piperazin-1-yl)-isoquinoline-4-carbonitrile]	2100 nM

Structure (SMILES)	IC50
COc1cc2c(N3CCNC(c4cccc5ccccc45)C3)nc(C)c(C#N)c2cc1OC (stereo not shown) [Compound 34, 6,7-Dimethoxy-3-methyl-1-(3-naphthalen-1-yl-piperazin-1-yl)-isoquinoline-4-carbonitrile]	880 nM
COc1cc(OC)cc(C2CN(c3nc(C)c(C#N)c4cc(OC)c(OC)cc34)CCN2)c1 (stereo not shown) [Compound 35, 1-[3-(3,5-Dimethoxy-phenyl)-piperazin-1-yl]-6,7-dimethoxy-3-methyl-isoquinoline-4-carbonitrile]	710 nM
COc1ccc(OC)c(C2CN(c3nc(C)c(C#N)c4cc(OC)c(OC)cc34)CCN2)c1 (stereo not shown) [Compound 36, 1-[3-(2,5-Dimethoxy-phenyl)-piperazin-1-yl]-6,7-dimethoxy-3-methyl-isoquinoline-4-carbonitrile]	960 nM
COc1cc2c(N3CCNC(c4ccc(Br)cc4)C3)nc(C)c(C#N)c2cc1OC (stereo not shown) [Compound 37, 1-[3-(4-Bromo-phenyl)-piperazin-1-yl]-6,7-dimethoxy-3-methyl-isoquinoline-4-carbonitrile]	2600 nM
COc1ccc2cc(C3CN(c4nc(C)c(C#N)c5cc(OC)c(OC)cc45)CCN3)ccc2c1 (stereo not shown) [Compound 38, 6,7-Dimethoxy-1-[3-(6-methoxy-naphthalen-2-yl)-piperazin-1-yl]-3-methyl-isoquinoline-4-carbonitrile]	980 nM
COc1ccc(C2CN(c3nc(C)c(C#N)c4cc(OC)c(OC)cc34)CCO2)cc1 (stereo not shown) [Compound 39, 6,7-Dimethoxy-1-[2-(4-methoxy-phenyl)-morpholin-4-yl]-3-methyl-isoquinoline-4-carbonitrile]	930 nM
COc1cc2c(N3CCN[C@H](c4ccccc4)C3)nc(C)c(C#N)c2cc1OC [Compound 40]	520 nM
COc1cc2c(N3CCNC(c4ccc(F)cc4)C3)nc(C)c(C#N)c2cc1OC (stereo not shown) [Compound 41, 1-[3-(4-Fluoro-phenyl)-piperazin-1-yl]-6,7-dimethoxy-3-methyl-isoquinoline-4-carbonitrile]	1200 nM
COc1cc2c(N3CCNC(c4ccccc4OC)C3)nc(C)c(C#N)c2cc1OC (stereo not shown) [Compound 42, 6,7-Dimethoxy-1-[3-(2-methoxy-phenyl)-piperazin-1-yl]-3-methyl-isoquinoline-4-carbonitrile]	1400 nM
COc1cc2c(N3CCNC(c4ccc5c(c4)OCO5)C3)nc(C)c(C#N)c2cc1OC (stereo not shown) [Compound 43, 1-(3-Benzo[1,3]dioxol-5-yl-piperazin-1-yl)-6,7-dimethoxy-3-methyl-isoquinoline-4-carbonitrile]	510 nM
COc1cc2c(C#N)cnc(N3CCN[C@@H](c4ccccc4)C3)c2cc1OC [Compound 44, 6,7-Dimethoxy-1-((S)-3-phenyl-piperazin-1-yl)-isoquinoline-4-carbonitrile]	410 nM
COc1cc2c(C#N)cnc(N3CCN(C)C(c4ccc(C)cc4)C3)c2cc1OC (stereo not shown) [Compound 45, 6,7-Dimethoxy-1-(4-methyl-3-p-tolyl-piperazin-1-yl)-isoquinoline-4-carbonitrile]	350 nM
CCc1ccc(C2CN(c3ncc(C#N)c4cc(OC)c(OC)cc34)CCN2)cc1 (stereo not shown) [Compound 46, 1-[3-(4-Ethyl-phenyl)-piperazin-1-yl]-6,7-dimethoxy-isoquinoline-4-carbonitrile]	1300 nM
COc1cc2c(N3CCNC(c4ccc(N(C)C)cc4)C3)nc(C)c(C#N)c2cc1OC (stereo not shown) [Compound 47, 1-[3-(4-Dimethylamino-phenyl)-piperazin-1-yl]-6,7-dimethoxy-3-methyl-isoquinoline-4-carbonitrile]	1200 nM
COc1cc2c(N3CCNC(c4cc(OC)c(OC)c(OC)c4)C3)nc(C)c(C#N)c2cc1OC (stereo not shown) [Compound 48, 6,7-Dimethoxy-3-methyl-1-[3-(3,4,5-trimethoxy-phenyl)-piperazin-1-yl]-isoquinoline-4-carbonitrile]	1500 nM
COc1cc2c(N3CCN[C@@H](c4ccccc4)C3)nc(C)c(C#N)c2cc1OC [Compound 49, 6,7-Dimethoxy-3-methyl-1-((S)-3-phenyl-piperazin-1-yl)-isoquinoline-4-carbonitrile]	460 nM
COc1cc2c(N3CCNC(c4cccc([N+](=O)[O-])c4)C3)nc(C)c(C#N)c2cc1OC (stereo not shown) [Compound 50, 6,7-Dimethoxy-3-methyl-1-[3-(3-nitro-phenyl)-piperazin-1-yl]-isoquinoline-4-carbonitrile]	1100 nM

— US7858620B2, “Cyanoisoquinoline” (H. Lundbeck A/S, priority 2007, dated 2010)
